Test results from PMC9894841, “Characterisation of a cyclic peptide that binds to the RAS binding domain of phosphoinositide 3-kinase p110α” (Scientific Reports, 2023).
“And” between values parts separate entries of the source, which are not always exact repeats. Equal values may be shown once. “Also recorded” adds a separate entry of the source. Residues, ends and D or L forms follow the SMILES beside them.

Legend:
Sm-KRAS/Lg-RBDα = molecular target: T1, Sm-KRAS/Lg-RBDα (Homo sapiens, UniProt P42336); assay: NanoBiT Biochemical Assay (NBBA) Sm-KRAS/Lg-RBDα; conditions: HEK293 cell lysate, 50 µM
T1 construct: Lg-BiT fused to the RBD of either p110α, p110 δ or p110γ; expressed in transfected cells; host or cells: HEK293 (lysate)
Text: We next sought to determine whether cyclo-CRVLIR binds specifically to p110α or if it can also interact with other PI3K isoforms. We chose the NBBA (NanoBiT Biochemical Assay), which was previously developed by our laboratory, as a tool to detect if cyclo-CRVLIR could inhibit the interaction of RAS with p110α, p110 δ and p110γ[36]. The NBBA is biochemical adaptation of the NanoBiT cellular assay that is based on the split luciferase NanoLuc system that uses separate Large-BiT (Lg-BiT) and Small-BiT (Sm-BiT) components, each fused to a protein of interest. When the Lg-BiT and Sm-BiT proteins are brought into close proximity, upon the binding of their cognate target proteins, they produce a luminescence signal. […] Cells were harvested at 48 h post-transfection and the cell lysates tested for the interaction of Sm-KRAS with each of the PI3K binding isoforms in the presence or absence of 50 µM cyclo-CRVLIR.
The production of the Sm-KRAS, and the Lg-RBD- of p110α, β, δ, γ constructs and lysate are described in detail in a previous report. The cell lysate was treated with 50 µM cyclo-CRVLIR for 20–30 min before detection by the addition of the Nano-Glo.

H1792 cells = assay: Western blot of phospho-AKT / phospho-ERK in H1792 cells; type: cell-based, human; conditions: 4 h
Description: We treated the human lung cancer cell line H1792, growing at steady-state in Roswell Park Memorial Institute (RPMI) 1640 media with 10% Foetal Calf Serum (FCS), with the seven cyclic peptides at three different concentrations (2, 10 and 50 µM) for 4 h. After treatment we measured the effect of the peptides on the phosphorylation levels of AKT (pAKT-Ser473), a key downstream effector of p110α activity. […] In contrast, the phosphorylation levels of ERK (p-ERK), which is a downstream effector of the RAS/RAF/MEK/ERK pathway and is independent of p110α activity, were not affected.
The next day, 1 ml of medium was removed and the cells were treated with different peptide concentrations for 4 h. All peptides were dissolved in 25 mM Tris pH8, 100 mM NaCl and 1 mM TCEP. Cells were then harvested and lysed for SDS-PAGE and western blot analysis. Anti-calnexin antibody was obtained from Abcam. Antibodies directed against phospho-T202/Y204-ERK, ERK, phospho-S473-AKT and AKT were obtained from Cell Signaling. After western blotting, calnexin, AKT and phospho-AKT signals were quantified using ImageJ and statistical tests were done using Prism software.

[1] = Solubility of the peptides (in words); type: physicochemical
p110α = p110α (Homo sapiens, UniProt P42336); assay: NMR STD and Water-LOGSY interaction with p110α; type: binding; conditions: 1 mM peptide, 8 µM p110α
Description: Here we chose Nuclear Magnetic Resonance (NMR) as an orthogonal technique to detect the cyclo-CRVLIR binding to p110α. We applied two commonly used NMR-based techniques that can detect protein/ compound interaction: STD (Saturation transfer difference), and Water-LOGSY (water-ligand observed through gradient spectroscopy)[34],[35].
NMR experiments were performed at 20 °C using a Bruker Avance IIIHD spectrometer operating at 700 MHz. STD experiments employed off-resonance saturation (2 s) at − 40 ppm, and on-resonance at − 1 ppm. Waterlogsy experiments used a mixing time of 1.5 s.

H1373 cells = assay: Western blot of phospho-AKT / phospho-ERK in H1373 cells; type: cell-based, human; conditions: 4 h
p110α/KRAS interaction = p110α/KRAS interaction (Homo sapiens, UniProt P42336); assay: MST competition assay of the p110α/KRAS interaction; type: binding; conditions: 20 µM peptide
Description: We next wanted to test whether the cyclo-CRVLIR peptide is capable of inhibiting the p110α/KRAS interaction.
Measurements were performed using a NanoTemper Monolith™ NT.115 instrument (NanoTemper Technologies GmbH, München, Germany). Protein samples were labelled with the amine reactive dye NT-647 (or NT-495) using the Monolith™ NT.115 Protein Labeling Kit RED-NHS (or Monolith™ NT.115 Protein Labeling Kit BLUE-NHS). Labelling levels (generally in the range 0.3–0.4 dye molecules per protein molecule) were determined using calculated extinction coefficients for the protein and ε647 = 250,000 M^−1 cm^−1 (or ε495 = 70,000 M^−1 cm^−1) for the dye concentration. In a typical experiment […] aliquots of a 100 nM stock solution of labelled protein were mixed with […] aliquots of a serial dilution of binding partner. These solutions were then loaded into standard treated capillaries and MST measurements were performed at 25 °C using 20–40% LED power and 40–60% IR-Laser power. The laser Laser-On time was 30 s and Laser-Off time 5 s. All measurements were performed at least five times.

p110α (p110α/p85α) = p110α (p110α/p85α) (Homo sapiens, UniProt P42336); assay: Microscale thermophoresis (MST) binding to labelled p110α/p85α
p110α (p110α/p85α), sequence (P42336 whole entry, species assumed): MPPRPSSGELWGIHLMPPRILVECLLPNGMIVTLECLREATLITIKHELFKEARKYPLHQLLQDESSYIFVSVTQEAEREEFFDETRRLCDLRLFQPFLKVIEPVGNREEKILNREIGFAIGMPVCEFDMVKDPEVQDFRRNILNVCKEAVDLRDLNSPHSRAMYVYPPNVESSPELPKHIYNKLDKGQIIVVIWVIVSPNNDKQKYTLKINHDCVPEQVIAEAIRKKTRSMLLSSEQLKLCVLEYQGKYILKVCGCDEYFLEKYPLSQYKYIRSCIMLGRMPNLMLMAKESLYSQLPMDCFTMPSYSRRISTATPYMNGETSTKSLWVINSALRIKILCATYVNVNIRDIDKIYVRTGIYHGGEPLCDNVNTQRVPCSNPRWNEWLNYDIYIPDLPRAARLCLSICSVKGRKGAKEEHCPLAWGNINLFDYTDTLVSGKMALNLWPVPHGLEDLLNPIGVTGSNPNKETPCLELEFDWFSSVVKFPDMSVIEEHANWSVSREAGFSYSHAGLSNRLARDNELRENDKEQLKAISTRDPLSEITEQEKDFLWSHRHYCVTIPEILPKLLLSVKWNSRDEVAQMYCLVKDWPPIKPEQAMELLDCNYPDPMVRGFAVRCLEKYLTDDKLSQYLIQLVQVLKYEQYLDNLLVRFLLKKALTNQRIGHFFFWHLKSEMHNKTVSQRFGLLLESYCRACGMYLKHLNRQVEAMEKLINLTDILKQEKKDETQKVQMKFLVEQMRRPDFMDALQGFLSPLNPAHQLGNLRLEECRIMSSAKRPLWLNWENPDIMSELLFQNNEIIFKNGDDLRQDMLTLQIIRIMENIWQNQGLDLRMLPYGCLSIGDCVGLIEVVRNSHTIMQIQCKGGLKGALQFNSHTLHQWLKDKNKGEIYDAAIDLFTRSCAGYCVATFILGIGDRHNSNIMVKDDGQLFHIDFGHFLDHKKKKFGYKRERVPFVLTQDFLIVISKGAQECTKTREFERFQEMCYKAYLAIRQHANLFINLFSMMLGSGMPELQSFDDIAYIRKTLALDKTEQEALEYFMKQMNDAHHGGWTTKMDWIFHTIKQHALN
p110α (p110α/p85α), sequence (P27986 whole entry partner, species assumed): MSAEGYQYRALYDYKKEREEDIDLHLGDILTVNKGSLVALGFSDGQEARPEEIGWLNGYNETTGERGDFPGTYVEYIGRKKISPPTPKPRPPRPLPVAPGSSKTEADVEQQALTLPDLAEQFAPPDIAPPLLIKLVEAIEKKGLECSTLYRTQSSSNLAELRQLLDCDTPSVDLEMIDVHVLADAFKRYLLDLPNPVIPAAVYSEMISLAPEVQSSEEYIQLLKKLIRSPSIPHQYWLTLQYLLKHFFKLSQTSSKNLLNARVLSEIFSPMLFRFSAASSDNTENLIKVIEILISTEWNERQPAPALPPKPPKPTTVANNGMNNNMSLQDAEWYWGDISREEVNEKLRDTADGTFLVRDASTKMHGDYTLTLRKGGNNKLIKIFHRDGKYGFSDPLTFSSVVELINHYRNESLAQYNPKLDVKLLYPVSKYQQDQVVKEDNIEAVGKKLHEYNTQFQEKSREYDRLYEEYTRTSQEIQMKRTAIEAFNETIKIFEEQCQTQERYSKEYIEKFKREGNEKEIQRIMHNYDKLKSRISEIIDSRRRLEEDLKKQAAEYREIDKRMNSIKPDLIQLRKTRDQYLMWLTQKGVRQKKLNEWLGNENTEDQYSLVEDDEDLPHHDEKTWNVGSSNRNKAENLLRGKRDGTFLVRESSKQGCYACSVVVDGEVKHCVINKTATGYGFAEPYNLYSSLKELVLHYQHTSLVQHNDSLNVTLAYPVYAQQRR

p110α/KRAS interaction, sequence (P42336 whole entry, species assumed): as the sequence (P42336 whole entry, species assumed) above
p110α/KRAS interaction, sequence (P27986 whole entry partner, species assumed): as the sequence (P27986 whole entry partner, species assumed) above
T1 sequence (P42336 187-289 limits assumed): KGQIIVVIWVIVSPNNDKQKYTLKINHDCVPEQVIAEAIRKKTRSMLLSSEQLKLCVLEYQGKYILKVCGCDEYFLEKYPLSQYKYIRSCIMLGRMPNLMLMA
p110α, sequence (P42336 whole entry, species assumed): as the sequence (P42336 whole entry, species assumed) above
p110α, sequence (P27986 whole entry partner, species assumed): as the sequence (P27986 whole entry partner, species assumed) above

CC[C@H](C)[C@@H]1NC(=O)[C@H](CC(C)C)NC(=O)[C@H](C(C)C)NC(=O)[C@H](CCCNC(=N)N)NC(=O)[C@H](CS)NC(=O)[C@H](CCCNC(=N)N)NC1=O [cyclo-CRVLIR, Cyclo-CRVLIR] (cyclo(CRVLIR))
inhibition of the Sm-KRAS/Lg-RBDα interaction signal (Sm-KRAS/Lg-RBDα): reduction in the interaction signal; also recorded: able to inhibit
effect on phosphorylation levels of ERK (p-ERK) (H1792 cells): not affected
effect on phospho-AKT (pAKT-Ser473) levels (H1792 cells; RPMI 1640 10% FCS, 2, 10 and 50 µM (also 4, 20 and 100 µM)): dose dependent effect; also recorded: reduces the levels of pAKT
solubility in words [1]: more soluble than the parent peptide cyclo-CRVLAA; also recorded: significantly more soluble than our original cyclo-CRVLAA peptide
interaction with p110α by STD and Water-LOGSY NMR (p110α): clear signal of interaction
effect on phospho-AKT (pAKT-S473) levels (H1373 cells; H1373 cells, 4, 20 and 100 µM): inhibition of pAKT; also recorded: reduces the levels of pAKT
effect on phosphorylation levels of ERK (p-ERK) (H1373 cells; H1373 cells): not affected
p110α/KRAS interaction in the presence of the peptide (p110α/KRAS interaction): blocked; also recorded: did not detect the p110α/KRAS interaction; also recorded: inhibits the p110α/RAS interaction
increase in affinity for p110α over cyclo-CRVLAA (p110α (p110α/p85α); MST): ~120 fold
Kd (p110α (p110α/p85α); labelled protein 100 nM, 25 °C): 2.9 µM and 3 µM
